BigSolDB 2.1

Cc1n[nH]c(=S)s1
solubility (mole fraction)
Conditions	283.15 K	288.15 K	293.15 K	298.15 K	303.15 K	308.15 K	313.15 K	318.15 K	323.15 K
in ethanol	0.0105	0.0131	0.0156	0.0184	0.0219	0.0249	0.0297	0.0342	0.04
in ethyl acetate	0.0152	0.0173	0.0197	0.0221	0.0244	0.0272	0.0307	0.0338	0.038
in ethyl formate	0.00842	0.01	0.0114	0.0134	0.0151	0.0176	0.0202	0.0227	0.0257
in isobutanol	0.00538	0.00689	0.00881	0.0112	0.0143	0.0172	0.0216	0.0271	0.0319
in isopropanol	0.00763	0.00943	0.0115	0.0143	0.0179	0.0215	0.0258	0.0314	0.0374
in methanol	0.0104	0.0129	0.0153	0.018	0.0213	0.0246	0.0292	0.0337	0.0396
in methyl acetate	0.0167	0.0189	0.021	0.0234	0.0257	0.0284	0.0313	0.0342	0.0382
in n-butanol	0.00723	0.00904	0.0109	0.0136	0.0164	0.0194	0.0239	0.0287	0.0333
in n-butyl acetate	0.0135	0.0153	0.0172	0.0194	0.022	0.0246	0.0274	0.0304	0.0336
in n-pentyl acetate	0.0117	0.0137	0.0157	0.0178	0.0203	0.0229	0.0261	0.0289	0.0334
in n-propanol	0.0097	0.0119	0.0145	0.0171	0.0206	0.0243	0.0288	0.033	0.0389
in n-propyl acetate	0.0146	0.0163	0.0187	0.0213	0.0237	0.0266	0.0301	0.033	0.0368
